Assay results taken from patent US7488855B2 (CJ Corporation, priority 2004, dated 2009).
≈ marks a conversion by molar mass, not a printed value.

Assay: Solubility in ethyl acetate by fractionation and phase separation, HPLC analysis of the solvent layer
Type: physicochemical

## CC(O)CO (centres unmarked) [1,2-propanediol]
Ethyl acetate, mixture 10:1:2:2 dissolved at 30-100 g/L 1,3-propanediol, left alone for 2 hours, upper solvent layer analysed by HPLC
  solubility in EA: 5000 to 7000 µg/mL

## OCC(O)CO [glycerol]
Organic solvent or mixture
  solubility at 2 h: 3000 to 6000 µg/mL (≈ 32.6 to 65.2 mM)
